Assay results from patent publication US11933866B2, “Magnetic resonance maps for analyzing brain tissue” (Tel HaShomer Medical Research Infrastructure and Services …, priority 2013, dated 2024).

Tests used:
glioblastoma [1] = conditions: TMZ during radiotherapy and for six months post radiotherapy; cited from earlier work
[2] = system: cerebellar metastasis of breast cancer; assay: Delayed contrast extravasation MRI maps before and after Avastin treatment, patient case (Example 15); format: in vivo, human; conditions: one patient, 2 years after stereotactic radiosurgery; maps before vs after Avastin treatment
Excerpt: There is current dispute weather Avastin affects active tumor or only treatment effects.
A patient with cerebellar metastasis of breast cancer was recruited 2 years after stereotactic radiosurgery with suspected radiation necrosis.

glioblastoma [3] = conditions: glioblastoma patients at progression after standard therapy; results of 2 studies; cited from earlier work
recurrent GBM = assay: Conventional MRI and maps follow-up of a recurrent GBM patient on Bevacizumab (Example 3); format: in vivo, human; conditions: one patient, three months after initiation of Bevacizumab treatment
Excerpt: Referring now to FIG. 8, a person with recurrent GBM was recruited 7 month after diagnosis prior to initiation of Bevacizumab treatment. At diagnosis the patients was operated on and received chemoradiation followed by TMZ. Six months later, at progression, the patient underwent a second resection and was recruited to the present Bevacizumab study 1 month after the second surgery, prior to initiation of the Bevacizumab treatment. At this point their enhancing lesion consisted of nearly 50% tumor according to the maps. […] Following this scan the patient was treated with re-irradiation (in parallel with continuing Bevacizumab) and was stabilized. […] The patient lived another ˜7 months after this last MRI scan.

Compound | additional toxicity (glioblastoma [1]) | response of tumor and radiation necrosis components in the maps [2] | tumor size (glioblastoma [3]) | conventional MRI finding (recurrent GBM) | blue/tumor volume in the maps (recurrent GBM; consistent with clinical deterioration)
Cn1nnc2c(C(N)=O)ncn2c1=O [temozolomide] | minimal additional toxicity | – | – | – | –
Bevacizumab | – | remarkable response of both components | reduced tumor size in some glioblastoma patients | showed improvement | significantly larger blue/tumor volume
